tested on: Maillard reaction; experiment: Inhibitory effect on Maillard reaction in vitro (BSA + glucose incubation, fluorescence); format: biochemical; conditions: 6mM test compound; 100 mg/ml bovine serum albumin (BSA), 200 mM glucose, 0.5 M phosphatic buffer solution (pH 7.38), incubated for a week at 37°C; fluorescence excitation 360nm, emission 450 nm
Procedure: An inhibitory activity on Maillard reaction of the compounds of the present invention was confirmed by the screening system mentioned below.
In order to evaluate the inhibitory effect on Maillard reaction in vitro, of the compounds in the present invention, the measurement was carried out under conditions described below.
100 mg/ml bovine serum albumin (BSA), 200 mM glucose and 6mM test compound were dissolved in 0.5 M phosphatic buffer solution (pH 7.38), and the mixture was incubated for a week at 37°C.
After incubation, the incubated medium was diluted 100 times with the same phosphatic buffer solution, and the fluorescence spectrum was measured at the excitation maximum of 360nm and the emission maximum of 450 nm.
Inhibition percentage of the test compounds was calculated by the following equation: [formula] ΔI₁ : fluorescence of test compounds ΔI₂ : fluorescence of (test compounds + glucose), ΔI₃ : fluorescence of (test compounds + BSA), ΔI₄ : fluorescence of (test compounds + BSA + glucose), ΔI : fluorescence of (BSA + glucose)

SMILES | Inhibitory effect (%) (6mM)
N=C(N)NNc1ccc(F)cc1.O=S(=O)(O)O [1(c), 1-(4-fluoroanilino) guanidine sulfate] | 100%
N=C(N)NNc1ccccc1.O=S(=O)(O)O [Example 1, 1-anilinoguanidine sulfate] | 79%
N=C(N)NNc1cccc([N+](=O)[O-])c1.O=S(=O)(O)O [1(j), 1-(3-nitroanilino) guanidine sulfate] | 94%
COc1ccc(NNC(=N)N)cc1.O=S(=O)(O)O [1(d), 1-(4-methoxyanilino) guanidine sulfate] | 100%
N=C(N)NNc1ccccc1Cl.O=S(=O)(O)O [Example 1(a), 1-(2-chloroanilino) guanidine sulfate] | 79%
Cc1ccc(NNC(=N)N)cc1.O=S(=O)(O)O [1(h), 1-(4-methylanilino) guanidine sulfate] | 83%
N=C(N)NNc1ccc(Cl)cc1.O=S(=O)(O)O [1(b), 1-(4-chloroanilino) guanidine sulfate] | 100%

From patent publication EP0325936A2, “Aminoguanidine derivatives and inhibitory agents on maillard reaction containing them as active ingredients” (ONO PHARMACEUTICAL CO., LTD., priority 1988, dated 1989)
